Data as given in US6521640B1, “Method for interviewing neuronal death using sulfasalazine” (Neurotech Co., Ltd., priority 2000, dated 2003).

How the values were obtained:
[1] = tested on: cocultures of mouse cortical neurons and glia; experiment: NMDA-induced neuronal death (LDH efflux) in cortical cell cultures; assay type: cell-based; conditions: for NMDA neurotoxicity (neuronal death 24 hr later): 300 μM NMDA for 10 min
Method: FIG. 2 is a graph plotting a dose-response effect of sulfasalazine against neuronal death 24 hr following a brief exposure to 300 μM NMDA. Cocultures of mouse cortical neurons and glia (DIV 12-14) were exposed to 300 μM NMDA for 10 min, alone or with inclusion of 10-1000 μM sulfasalazine. Neuronal death was analyzed by measuring LDH efflux into the bathing medium 24 hr later, mean ± S.E.M. (n−8−16 cultrues per condition), scaled to the mean LDH value corresponding to the near-complete neuronal death induced by 24 hr exposure to 500 μM NMDA (=100%). Asterisk indicates significant difference from relevant control (NMDA alone), at ρ<0.05 using ANOVA and Student-Neuman-Keuls' test.
FIG. 3 is a graph plotting neuroprotective effects of sulfasalazine against dose-dependent neurotoxicity by NMDA. Cortical cell cultures were exposed to 30-1000 μM NMDA for 10 min, alone or in the presence of 300 or 1000 μM sulfasalazine. Neuronal death was analyzed by measuring LDH efflux into the bathing medium 24 hr later, mean ± S.E.M. (n=8−16 cultures per condition). Asterisk indicates significant difference from relevant control (NMDA alone), at ρ<0.05 using ANOVA and Student-Neuman-Keuls' test.
(§1) Primary cortical cell cultrues from embryonic mice were prepared and used to examine neuroprotective action of compounds. Mouse cortical cell culture system has been extensively used to study mechanisms and pharmacological intervention of neuronal death in neurological diseases. In brief, mouse cerebral coritces were removed from brains of the 15 day—old—fetal mice, in accordance with a protocol approved by our institutional animal care committee. The neocortices were gently triturated and plated on 24 well plates (5 hemispheres/plate) precoated with 100 μg/ml poly-D-lysine and 4 μg/ml laminine. […]
(§2) Overall cell injury was assessed microscopically under phase-contrast optics or by measuring amount of lactate dehydrogenase (LDH) released into the bathing medium 24 hr after neurotoxic insults as previously described (Koh and Choi, J Neurosci Methods 20:83-90, 1987). […]

cortical neurons = experiment: NMDA-induced accumulation of intracellular free Ca2+ (fluo-3); assay type: cell-based, mouse; conditions: 300 μM NMDA; 300 μM sulfasalazine
Method: FIG. 4 is a graph plotting effects of sulfasalazine against NMDA-induced accumulation of intracellular free Ca^2+. […] [Ca^2+], was analyzed in fluo-3-loaded neutrons immediately after treatment, mean ± S.E.M. (n÷55−94 randomly chosen neurons in 4-6 glass bottom dishes per condition), scaled to [Ca^2+], after the sham control (÷100%). Asterisk indicates significant difference from relevant control (NMDA alone), at ρ<0.05 using ANOVA and Student-Neuman-Keuls' test.
as §1
Levels of intracellular free Ca^2+ ([Ca^2+]i) were analyzed using a Ca^2+ sensitive indicator flou-3 under a fluorescence microphotometry (Minta A. Kao J P. Tsien R Y. 1989, J Bio Chem. 264:8171-8178). […] The fluroescence images were analyzed using a QuantiCell 700 system (Applied Imaging, England).

cortical cell cultures [2] = experiment: NMDA-induced 45Ca2+ uptake; assay type: cell-based, mouse; conditions: for 45Ca2+ influx after NMDA: 300 μM NMDA, 10 min
Method: FIG. 5 is a graph plotting effects of sulfasalazine against NMDA-induced ^45Ca^2+ uptake. Cortical cell cultrues (DIV 12-14) were exposed to a sham wash (control) or 300 μM NMDA, alone or in the presence of 30-1000 μM sulfasalazine. Ca^2+ influx was analyzed 10 min later by measuring ^45Ca^2+ influx, mean ± S.E.M. (n=12 cultures per condition). Asterisk indicates significant difference from relevant control (NMDA alone), at ρ<0.05 using ANOVA and Student-Neuman-Keuls' test.
Primary cortical cell cultrues from embryonic mice were prepared and used to examine neuroprotective action of compounds. Mouse cortical cell culture system has been extensively used to study mechanisms and pharmacological intervention of neuronal death in neurological diseases. In brief, mouse cerebral coritces were removed from brains of the 15 day—old—fetal mice, in accordance with a protocol approved by our institutional animal care committee. The neocortices were gently triturated and plated on 24 well plates (5 hemispheres/plate) precoated with 100 μg/ml poly-D-lysine and 4 μg/ml laminine. Plating media consist of Eagles minimal essential media (MEM, Earles salts, supplied glutamine-free) supplemented with 5% horse serum, 5% fetal bovine serum, 2 mM glutamine, and 21 mM glucose. Cultures were maintained at 37° C. in a humidified 5% CO2 atmosphere. After 7 days in vitro (DIV 7), cultures were shifted into a growth medium identical to the plating medium but lacking fetal serum. At DIV 7-9, […] cytosine arabinofuranoside was included to halt overgrowth of glia. Mixed cultures of neurons and glia were then fed twice a week.
To analyze Ca^2+ uptake, cortical cell cultures (DIV 13-14) were added with 300 μM NMDA and 1.5 μCi ^45Ca^2+ for 10 min, washed thoroughly with HCSS, and lysed in 0.2% SDS. Levels of ^45Ca^2+ in the lysates were read in a Beckman Scintillation counter.

[3] = tested on: cocultures of cortical neurons and glia; experiment: Fe2+-induced free radical neuronal death (LDH); assay type: cell-based, mouse; conditions: 50 μM Fe2+; 30-300 μM sulfasalazine concurrent
Method: FIG. 6 is a graph plotting a dose-response effect of sulfasalazine against neuronal death following 24 hr-exposure to 50 μM Fe^2+. […] Neuronal death was assessed 24 hr later by measurement of LDH released into the bathing medium, means ± S.E.M. (n=4 12 culture wells per condition). Asterisk indicates significant difference from relevant control (Fe^2+ alone) at ρ<0.05, using ANOVA and Student-Neuman-Keuls' test.
as §1, §2

[4] = tested on: cocultures of cortical neurons and glia; experiment: BSO-induced free radical neuronal death (LDH); assay type: cell-based, mouse; conditions: 10 mM BSO; 30-300 μM sulfasalazine concurrent
Method: FIG. 7 is a graph plotting a dose-response effect of sulfasalazine against neuronal death following 24 hr-exposure to 10 mM BSO. Cortical cell cultures (DIV 12-14) were exposed to 10 mM L-buthionine-(S,R)-sulfoximine (BSO), alone or with 30-300 μM sulfasalazine. Neuronal death was assessed 24 hr later by measurement of LDH released into the bathing medium, mean ± SEM (n=8 culture wells per condition). Asterisk indicates significant difference from relevant control (BSO alone) at ρ<0.05, using ANOVA and Student-Neuman-Keuls' test.
as §1, §2

cortical cell cultures [5] = experiment: Fe2+-induced production of reactive oxygen species (DCDHF fluorescence); assay type: cell-based, mouse
Method: FIG. 8 is a graph plotting effects of sulfasalazine against Fe^2+-induced production of reactive oxygen species. Cortical cell cultures (DIV 13-14) were exposed to a sham wash (control) or 50 μM Fe^2+, alone or with 100 μM sulfasalazine for the indicated points of time. Levels of ROS in neurons were analyzed by monitoring the fluorescent signal of oxidized DCDHF, mean ± S.E.M. (n=53−80 neurons randomly chosen under a phase-contrast optic). Asterisk indicates significant difference from the relevant control (Fe^2+ alone in each time point) at ρ<0.05 using ANOVA and Student-Neuman-Keuls' test.
Primary cortical cell cultrues from embryonic mice were prepared and used to examine neuroprotective action of compounds. […]
To analyze reactive oxygen species in cortical cells, cortical cultures were loaded with 10 μM 6-carboxy-2′,7′-dichlorodihydrofluorescein diacetate (DCDHF-DA) plus 2% Pluronic F-127 in HCSS solution containing (120 mM NaCl, 5 mM KCl, 1.6 mM MgCl2, 2.3 mM CaCl2, 15 mM Glucose, 20 mM HEPES, 10 mM NaOH) for 20 minutes at 37° C., washed three times with HCSS solution, and the fluorescence signal of DCF (Ex 1=488 nm, Em 1=510 nm), the oxidation product of DCDHF-DA, was analyzed on the stage of a Nikon Diaphot inverted microscope equipped with a 100W Xenon lamp and a Nikon 20X, 0.4 N.A. objective.

cortical cell cultures [6] = experiment: Zn2+ neurotoxicity (LDH); assay type: cell-based, mouse; conditions: 300 μM Zn2+ for 30 min; 10-100 μM sulfasalazine concurrent
Method: FIG. 9 is a graph plotting a dose-response effect of sulfasalazine against neuronal death 24 hr following exposure to 300 μM Zn^2+ for 30 min. Cortical cell cultures were exposed to 30-500 μM Zn^2+ for 30 min, alone (filled circles) or with inclusion of 100 μM sulfasalazine (open circles). Neuronal death was assessed 24 hr later by measurement of LDH released into the bathing medium, mean ± SEM (n=8 culture wells per condition). Asterisk indicates significant difference from relevant control (Zn^2+ alone) at ρ<0.05, using ANOVA and Student-Neuman-Keuls' test.
as §1, with “committee.” for “committee. The neocortices were gently triturated and plated on 24 well plates (5 hemispheres/plate) precoated with 100 μg/ml poly-D-lysine and 4 μg/ml laminine.”
as §2

cortical cell cultures [7] = experiment: Zn2+ entry into cortical cells (TSQ fluorescence); assay type: cell-based, mouse
Method: FIG. 10 is a graph plotting effects of sulfasalazine reducing Zn^2 entry into cortical cells. Sister cultures were exposed to 300 μM Zn^2+ for 30 min, alone or with inclusion of 30-300 μM sulfasalazine. Zn^2+ entry was assessed 30 min later by measuring fluorescence intensity of TSQ, a Zn^2+ chelating agent. (n=8 culture wells per condition). Asterisk indicates significant difference from relevant control (Zn^2 alone) at ρ<0.05, using ANOVA and Student-Neuman-Keuls' test.
as §1, with “committee.” for “committee. The neocortices were gently triturated and plated on 24 well plates (5 hemispheres/plate) precoated with 100 μg/ml poly-D-lysine and 4 μg/ml laminine.”
Entry and accumulation of Zn^2+ into neurons were analyzed using TSQ (N-(6-methoxy-8-quinolyl)-p-toluene sulfonamide), a membrane-permeable Zn^2+-chelating dye (Weiss J H, Hartley D M, Koh J Y, Choi D W, 1993, Neuron, 10:43-49). Cultures were incubated in HCSS containing 0.01% TSQ for 5 min, observed under fluorescence microscopy with a UV filter (excitation 365 nm, dichroic 400 nm, barrier 450 nm), and the intensity of TSQ was analyzed using a fluorescence plate reader.

cortical cell cultures [8] = experiment: Neuronal death after oxygen and glucose deprivation (LDH); assay type: cell-based, mouse; conditions: 300 μM sulfasalazine
Method: FIG. 11 is a graph plotting neuroprotective effects of sulfasalazine against deprivation of oxygen and glucose. Cortical cell cultures (DIV 14) were deprived of oxygen and glucose (OGD) for 45, 60 or 90 min, alone (black bars) or with inclusion of 300 μM sulfasalazine (gray bars). Neuronal death was assessed 24 hr later by measurement of LDH released into the bathing medium, mean ± SEM (n=4 culture wells per condition). Asterisk indicates significant difference from relevant control (OGD alone) at ρ<0.05, using ANOVA and Student-Neuman-Keuls' test.
Primary cortical cell cultrues from embryonic mice were prepared and used to examine neuroprotective action of compounds. Mouse cortical cell culture system has been extensively used to study mechanisms and pharmacological intervention of neuronal death in neurological diseases. […]
Oxygen or glucose deprivation: cortical cell cultures (DIV 15-17) were transferred to an anacrobic chamber containing 5% CO2, 10% H2, and 85% N2 as described before (Gwag B J, Lobner D, Koh J Y, Wie M B, and Choi D W, 1995, Neuroscience, 68:615-619). […] Neuronal injury was quantified 24 hr later.
as §2

[9] = man, 3-5 hrs after oral ingestion of a single 4 g dose; cited from earlier work

Structure (SMILES): O=C(O)c1cc(/N=N/c2ccc(S(=O)(=O)Nc3ccccn3)cc2)ccc1O [sulfasalazine]
- NMDA neurotoxicity (neuronal death 24 hr later) ([1]; 1 mM sulfasalazine): completely blocked
- NMDA neurotoxicity (neuronal death 24 hr later) ([1]; 100-300 μM sulfasalazine concurrent): partially reduced
- neuroprotective effects with increasing doses of NMDA ([1]; NMDA up to 1 mM for 10 min, 300 or 1000 μM sulfasalazine): did not interfere with the neuroprotective effects
- NMDA-induced accumulation of [Ca2+]i (cortical neurons): markedly reduced
- 45Ca2+ influx after NMDA (cortical cell cultures [2]; 300 μM sulfasalazine): partially reduced
- 45Ca2+ influx after NMDA (cortical cell cultures [2]; 1000 μM sulfasalazine): completely blocked
- doses preventing influx and accumulation of Ca2+ (cortical cell cultures [2]; summary statement): 30-1,000 μM
- neuronal death 24 hr following continuous exposure to Fe2+ [3]: dose-dependently reduced
- neuronal death 24 hr following continuous exposure to BSO [4]: dose-dependently reduced
- production of ROS following exposure to Fe2+ (cortical cell cultures [5]; 50 μM Fe2+, 100 μM sulfasalazine): reduced production of ROS
- doses scavenging reactive oxygen species (cortical cell cultures [5]; summary statement): 3 to 100 µM
- Zn2+ neurotoxicity (cortical cell cultures [6]): reduced Zn^2+ neurotoxicity in a dose-dependent manner
- Zn2+ entry (cortical cell cultures [7]; 300 μM Zn2+ for 30 min, 300 μM sulfasalazine): slightly but significantly reduced
- doses preventing influx and accumulation of Zn2+ (cortical cell cultures [7]; summary statement): 30-1,000 μM
- neuroprotective effects after prolonged deprivation of oxygen and glucose (cortical cell cultures [8]; OGD extended to 90 min): decreased
- neuronal death following deprivation of oxygen and glucose (cortical cell cultures [8]; OGD for 45-60 min): markedly reduced
- serum concentrations [9]: approximately 500 μM
